Assay results reported in BigSolDB 2.1.

## OCCOc1ccc2ccccc2c1-c1c(OCCO)ccc2ccccc12
In acetone, 283.15 K
  solubility (mole fraction): 0.00658
In acetone, 288.15 K
  solubility (mole fraction): 0.00893
In acetone, 293.15 K
  solubility (mole fraction): 0.0121
In acetone, 298.15 K
  solubility (mole fraction): 0.0153
In acetone, 303.15 K
  solubility (mole fraction): 0.0212
In acetone, 308.15 K
  solubility (mole fraction): 0.027
In acetone, 313.15 K
  solubility (mole fraction): 0.0352
In acetone, 318.15 K
  solubility (mole fraction): 0.0441
In acetone, 323.15 K
  solubility (mole fraction): 0.0567
In ethyl acetate, 283.15 K
  solubility (mole fraction): 0.00227
In ethyl acetate, 288.15 K
  solubility (mole fraction): 0.00328
In ethyl acetate, 293.15 K
  solubility (mole fraction): 0.00464
In ethyl acetate, 298.15 K
  solubility (mole fraction): 0.00604
In ethyl acetate, 303.15 K
  solubility (mole fraction): 0.00802
In ethyl acetate, 308.15 K
  solubility (mole fraction): 0.0104
In ethyl acetate, 313.15 K
  solubility (mole fraction): 0.0133
In ethyl acetate, 318.15 K
  solubility (mole fraction): 0.0174
In ethyl acetate, 323.15 K
  solubility (mole fraction): 0.0229
In ethyl formate, 283.15 K
  solubility (mole fraction): 0.00207
In ethyl formate, 288.15 K
  solubility (mole fraction): 0.00284
In ethyl formate, 293.15 K
  solubility (mole fraction): 0.00399
In ethyl formate, 298.15 K
  solubility (mole fraction): 0.00539
In ethyl formate, 303.15 K
  solubility (mole fraction): 0.00721
In ethyl formate, 308.15 K
  solubility (mole fraction): 0.00964
In ethyl formate, 313.15 K
  solubility (mole fraction): 0.0123
In ethyl formate, 318.15 K
  solubility (mole fraction): 0.0161
In ethyl formate, 323.15 K
  solubility (mole fraction): 0.0209
In isobutanol, 283.15 K
  solubility (mole fraction): 0.000512
In isobutanol, 288.15 K
  solubility (mole fraction): 0.000733
In isobutanol, 293.15 K
  solubility (mole fraction): 0.00108
In isobutanol, 298.15 K
  solubility (mole fraction): 0.00147
In isobutanol, 303.15 K
  solubility (mole fraction): 0.00209
In isobutanol, 308.15 K
  solubility (mole fraction): 0.00291
In isobutanol, 313.15 K
  solubility (mole fraction): 0.00388
In isobutanol, 318.15 K
  solubility (mole fraction): 0.005
In isobutanol, 323.15 K
  solubility (mole fraction): 0.00655
In isobutyl acetate, 283.15 K
  solubility (mole fraction): 0.00105
In isobutyl acetate, 288.15 K
  solubility (mole fraction): 0.00158
In isobutyl acetate, 293.15 K
  solubility (mole fraction): 0.0022
In isobutyl acetate, 298.15 K
  solubility (mole fraction): 0.00296
In isobutyl acetate, 303.15 K
  solubility (mole fraction): 0.00396
In isobutyl acetate, 308.15 K
  solubility (mole fraction): 0.00518
In isobutyl acetate, 313.15 K
  solubility (mole fraction): 0.00692
In isobutyl acetate, 318.15 K
  solubility (mole fraction): 0.00911
In isobutyl acetate, 323.15 K
  solubility (mole fraction): 0.0117
In isopropanol, 283.15 K
  solubility (mole fraction): 0.000762
In isopropanol, 288.15 K
  solubility (mole fraction): 0.00102
In isopropanol, 293.15 K
  solubility (mole fraction): 0.00132
In isopropanol, 298.15 K
  solubility (mole fraction): 0.00187
In isopropanol, 303.15 K
  solubility (mole fraction): 0.00263
In isopropanol, 308.15 K
  solubility (mole fraction): 0.00351
In isopropanol, 313.15 K
  solubility (mole fraction): 0.00487
In isopropanol, 318.15 K
  solubility (mole fraction): 0.00649
In isopropanol, 323.15 K
  solubility (mole fraction): 0.00847
In methyl acetate, 283.15 K
  solubility (mole fraction): 0.00297
In methyl acetate, 288.15 K
  solubility (mole fraction): 0.00423
In methyl acetate, 293.15 K
  solubility (mole fraction): 0.00595
In methyl acetate, 298.15 K
  solubility (mole fraction): 0.00778
In methyl acetate, 303.15 K
  solubility (mole fraction): 0.0102
In methyl acetate, 308.15 K
  solubility (mole fraction): 0.0137
In methyl acetate, 313.15 K
  solubility (mole fraction): 0.0173
In methyl acetate, 318.15 K
  solubility (mole fraction): 0.0218
In methyl acetate, 323.15 K
  solubility (mole fraction): 0.0292
In n-butanol, 283.15 K
  solubility (mole fraction): 0.000873
In n-butanol, 288.15 K
  solubility (mole fraction): 0.00119
In n-butanol, 293.15 K
  solubility (mole fraction): 0.00168
In n-butanol, 298.15 K
  solubility (mole fraction): 0.00242
In n-butanol, 303.15 K
  solubility (mole fraction): 0.00317
In n-butanol, 308.15 K
  solubility (mole fraction): 0.00428
In n-butanol, 313.15 K
  solubility (mole fraction): 0.0058
In n-butanol, 318.15 K
  solubility (mole fraction): 0.00782
In n-butanol, 323.15 K
  solubility (mole fraction): 0.0109
In n-butyl acetate, 283.15 K
  solubility (mole fraction): 0.00136
In n-butyl acetate, 288.15 K
  solubility (mole fraction): 0.00186
In n-butyl acetate, 293.15 K
  solubility (mole fraction): 0.00286
In n-butyl acetate, 298.15 K
  solubility (mole fraction): 0.00389
In n-butyl acetate, 303.15 K
  solubility (mole fraction): 0.00486
In n-butyl acetate, 308.15 K
  solubility (mole fraction): 0.00646
In n-butyl acetate, 313.15 K
  solubility (mole fraction): 0.0086
In n-butyl acetate, 318.15 K
  solubility (mole fraction): 0.0108
In n-butyl acetate, 323.15 K
  solubility (mole fraction): 0.0144
In n-pentanol, 283.15 K
  solubility (mole fraction): 0.000827
In n-pentanol, 288.15 K
  solubility (mole fraction): 0.00116
In n-pentanol, 293.15 K
  solubility (mole fraction): 0.00163
In n-pentanol, 298.15 K
  solubility (mole fraction): 0.00227
In n-pentanol, 303.15 K
  solubility (mole fraction): 0.00303
In n-pentanol, 308.15 K
  solubility (mole fraction): 0.00413
In n-pentanol, 313.15 K
  solubility (mole fraction): 0.00551
In n-pentanol, 318.15 K
  solubility (mole fraction): 0.00725
In n-pentanol, 323.15 K
  solubility (mole fraction): 0.00966
In n-propanol, 283.15 K
  solubility (mole fraction): 0.00111
In n-propanol, 288.15 K
  solubility (mole fraction): 0.00143
In n-propanol, 293.15 K
  solubility (mole fraction): 0.00189
In n-propanol, 298.15 K
  solubility (mole fraction): 0.00268
In n-propanol, 303.15 K
  solubility (mole fraction): 0.00369
In n-propanol, 308.15 K
  solubility (mole fraction): 0.00494
In n-propanol, 313.15 K
  solubility (mole fraction): 0.00644
In n-propanol, 318.15 K
  solubility (mole fraction): 0.00847
In n-propanol, 323.15 K
  solubility (mole fraction): 0.012
In toluene, 283.15 K
  solubility (mole fraction): 0.000885
In toluene, 288.15 K
  solubility (mole fraction): 0.00122
In toluene, 293.15 K
  solubility (mole fraction): 0.00176
In toluene, 298.15 K
  solubility (mole fraction): 0.0025
In toluene, 303.15 K
  solubility (mole fraction): 0.00331
In toluene, 308.15 K
  solubility (mole fraction): 0.00447
In toluene, 313.15 K
  solubility (mole fraction): 0.00595
In toluene, 318.15 K
  solubility (mole fraction): 0.00794
In toluene, 323.15 K
  solubility (mole fraction): 0.0104
